The values below come from patent publication US20250034147A1, “MDM2 DEGRADERS AND USES THEREOF” (Kymera Therapeutics, Inc., priority 2021, published 2025).

The target in one experiment is T1, HiBiT-tagged MDM2 (Homo sapiens, UniProt Q00987).
T1 construct: expressed in transfected cells
The experiment can be described thus: MDM2 HiBit HEK293T degradation. It counts as cell-based. Particulars: HEK293T cells stably expressing C-terminally HiBiT-tagged MDM2; 4 h; read-out: MDM2 HiBit HEK293T degradation 4 h: Average external-Abs DC50. Put shortly: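 Degradation was measured in HEK293T cells stably expressing C-terminally HiBiT-tagged MDM2, a pool selected with 1 microgram/ml puromycin. A MDM2 tool degrader and HaloPROTAC3 served as positive controls. Potency is reported as DC50 in letter bins.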

The subject of the next experiment is RS411 cells. The experiment is described as follows: Cell Viability CTG Assay. It is filed as cell-based. Particulars: Homo sapiens, RS4-11, CellTiter Glo (CTG) cell viability, read-out: Average external-IC50. Put shortly:
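RS411 cells (1000/well) exposed 1 day at 37 °C to compound, 11-point 3-fold dilution from 10 μM top, 0.2% DMSO final. Viability read by CellTiter-Glo luminescence; IC50 reported as letter bins.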
(ATP-based viability assays read luminescence as a measure of living cells.)

T1 sequence (Q00987 whole entry): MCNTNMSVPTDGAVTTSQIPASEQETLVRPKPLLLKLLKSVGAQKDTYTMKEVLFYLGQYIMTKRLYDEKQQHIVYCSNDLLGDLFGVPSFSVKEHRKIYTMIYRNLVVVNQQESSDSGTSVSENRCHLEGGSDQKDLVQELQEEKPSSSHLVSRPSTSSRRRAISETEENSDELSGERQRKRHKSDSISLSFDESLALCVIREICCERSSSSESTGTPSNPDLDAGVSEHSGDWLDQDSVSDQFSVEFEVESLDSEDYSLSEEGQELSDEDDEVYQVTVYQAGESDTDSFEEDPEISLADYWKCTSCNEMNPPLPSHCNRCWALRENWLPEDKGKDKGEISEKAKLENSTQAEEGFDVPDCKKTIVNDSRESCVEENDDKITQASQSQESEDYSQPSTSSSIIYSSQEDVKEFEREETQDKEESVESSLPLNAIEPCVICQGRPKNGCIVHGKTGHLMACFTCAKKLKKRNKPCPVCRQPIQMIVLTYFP

In general, DC50 refers to the concentration giving 50% degradation. For orientation: IC50 means the midpoint of a concentration-inhibition curve. Consider `Cn1c(=O)n(C2CCC(=O)NC2=O)c2ccc(C3CCN(C[C@H]4CC[C@H](NC(=O)[C@@H]5NC6(CCCCC6)[C@@]6(C(=O)Nc7cc(CC8CC8)ccc76)[C@H]5c5cccc(Cl)c5F)CC4)CC3)cc21` (stereo partly drawn) [I-94], for which the DC50 at HiBiT-tagged MDM2 was above 1 µM. Besides, in the experiment on RS411 cells, the half-maximal inhibitory concentration (IC50) was above 0.5 µM.
Consider `CCOc1ccc2c(c1)NC(=O)[C@]21[C@@H](c2cccc(Cl)c2F)[C@H](C(=O)N[C@H]2CC[C@H](CN3CCC(c4ccc5c(c4)n(C)c(=O)n5C4CCC(=O)NC4=O)CC3)CC2)NC12CCCCC2` (stereo partly drawn) [I-95], for which, at HiBiT-tagged MDM2, the DC50 was 0.1 to 1 µM. For the same compound, the IC50 in the experiment with RS411 cells was above 0.5 µM.
Consider `CCOc1ccc2c(c1)NC(=O)C21[C@@H](c2cccc(Cl)c2F)[C@H](C(=O)N[C@H]2CC[C@H](C(=O)C3CCN(CCCc4ccc5c(c4)n(C)c(=O)n5C4CCC(=O)NC4=O)CC3)CC2)NC12CCCCC2` (stereo partly drawn) [I-96], for which the half-maximal degradation concentration (DC50) at HiBiT-tagged MDM2 is below 0.01 µM. Further, the IC50 in the experiment with RS411 cells is above 0.5 µM.
In the same order, the values of `Cn1c(=O)n(C2CCC(=O)NC2=O)c2ccc(CCN3CCC(NC(=O)[C@@H]4NC5(CCCCC5)[C@@]5(C(=O)Nc6cc(Cl)ccc65)[C@H]4c4cccc(Cl)c4F)CC3)cc21` (stereo partly drawn) [I-97] are below 0.01 µM and 0.005 to 0.05 µM.
Regarding `Cn1c(=O)n(C2CCC(=O)NC2=O)c2ccc(CN3CCC(NC(=O)[C@@H]4NC5(CCCCC5)[C@@]5(C(=O)Nc6cc(Cl)ccc65)[C@H]4c4cccc(Cl)c4F)CC3)cc21` (stereo partly drawn) [I-98], the DC50 at HiBiT-tagged MDM2 lay within 0.1 to 1 µM. Also, the IC50 with RS411 cells fell in the range of 0.005 to 0.05 µM.
For the compound `O=C(O)Cn1c(=O)n(C2CCC(=O)NC2=O)c2ccc(C3CCN(C(=O)[C@H]4CC[C@H](NC(=O)[C@@H]5NC6(CCCCC6)[C@@]6(C(=O)Nc7cc(Cl)ccc76)[C@H]5c5cccc(Cl)c5F)CC4)CC3)cc21` (stereo partly drawn) [I-99], at HiBiT-tagged MDM2, the half-maximal degradation concentration (DC50) is 0.1 to 1 µM. Further, the half-inhibitory concentration (IC50) in the experiment on RS411 cells lay within 0.005 to 0.05 µM.
